What all share (type): biochemical
One test addresses T1, full-length human PHD2 (Homo sapiens, UniProt Q9GZT9).
T1 construct: The PHD2 construct contained amino acids 1 to 426 of PHD2; His tag (N, cleaved yes); TEV protease cleavage site (N, cleaved yes); host or cells: Sf9 insect cells (baculovirus)
In words: TR-FRET assay for PHD enzymes, PHD2. As to conditions: read-out: PHD2 IC5 0. As to the method: (§1) The resulting proximity of the donor fluorophore complex, monoclonal antibody anti-6His-Terbium (Tb)-cryptate Gold, bound to the His-tagged VHL protein, EloB, EloC complex (His-VBC) and the acceptor fluorophore, SA-D2 complex, bound to HIF-1α-hydroxyproline results in a fluorescence resonance energy transfer signal that can be detected and quantified
(§2) For this, 5 μL PHD inhibitor compound was serially diluted with dilution buffer (50 mM HEPES [4-(2-hydroxyethyl)-1-piperazineethanesulfonic acid] pH 7.5, 50 mM sodium chloride [NaCl], 0.01% Tween-20, 0.01% purified bovine serum albumin [BSA]) and mixed with 5 μL PHD enzyme mix prepared as a 4× concentrate in the dilution buffer containing PHD enzyme (60 nM PHD1, 20 nM PHD2, 140 nM PHD3), 40 μM ferrous ammonium sulfate (FAS), 4 mM sodium (Na) ascorbate.
(§3) The IC50 values (mean, standard deviation, standard error of the mean, geometric mean and 95% confidence interval) were determined using a four-parameter curve-fit using GraphPad Prism 7.0 (GraphPad, La Jolla, Calif., USA) and represent the compound concentration plotted against the calculated ratio of 665 nm and 615 nm.
(Time-resolved FRET reads energy transfer from a long-lived donor to a nearby acceptor.)

For the next test, the target named is T2, full-length human PHD3 (Homo sapiens, UniProt Q9H6Z9).
T2 construct: 6-His (N); purchased Active Motif (Carlsbad, Calif., USA) 81033; host or cells: E. coli
Description: TR-FRET assay for PHD enzymes, PHD3.
From the text: as §1
Recombinant human PHD3 protein (molecular weight 31.1 kDa) was purchased from Active Motif (Carlsbad, Calif., USA). It was expressed in E. coli as the full-length protein (NCBI accession number NP_071356.1) with an N-terminal 6-His tag (catalog #81033, Lot #24417001).
as §2, §3

Another test deals with T3, full-length human PHD1 (Homo sapiens, UniProt Q96KS0).
T3 construct: FLAG (N); purchased Active Motif (Carlsbad, Calif., USA) 81064; host or cells: baculovirus expression system
In words: TR-FRET assay for PHD enzymes, PHD1.
From the text: as §1
Recombinant human PHD1 protein (catalog #81064, Lot #24717001) was purchased from Active Motif (Carlsbad, Calif., USA). PHD1 was expressed in a baculovirus expression system as the full-length protein (NCBI accession number NP_542770.2) with an N-terminal FLAG tag (molecular weight 44.9 kDa). Purity (>90%) was assessed by SDS-PAGE.
as §2, §3

T2 sequence (Q9H6Z9 whole entry): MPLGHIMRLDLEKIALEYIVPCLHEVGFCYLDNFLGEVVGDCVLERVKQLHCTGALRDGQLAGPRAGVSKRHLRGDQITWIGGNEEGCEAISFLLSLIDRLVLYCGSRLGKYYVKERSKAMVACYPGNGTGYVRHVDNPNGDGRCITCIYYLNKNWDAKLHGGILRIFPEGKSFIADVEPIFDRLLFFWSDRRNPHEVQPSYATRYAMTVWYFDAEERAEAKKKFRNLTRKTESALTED
T1 sequence (Q9GZT9 whole entry, the tested form may be a part): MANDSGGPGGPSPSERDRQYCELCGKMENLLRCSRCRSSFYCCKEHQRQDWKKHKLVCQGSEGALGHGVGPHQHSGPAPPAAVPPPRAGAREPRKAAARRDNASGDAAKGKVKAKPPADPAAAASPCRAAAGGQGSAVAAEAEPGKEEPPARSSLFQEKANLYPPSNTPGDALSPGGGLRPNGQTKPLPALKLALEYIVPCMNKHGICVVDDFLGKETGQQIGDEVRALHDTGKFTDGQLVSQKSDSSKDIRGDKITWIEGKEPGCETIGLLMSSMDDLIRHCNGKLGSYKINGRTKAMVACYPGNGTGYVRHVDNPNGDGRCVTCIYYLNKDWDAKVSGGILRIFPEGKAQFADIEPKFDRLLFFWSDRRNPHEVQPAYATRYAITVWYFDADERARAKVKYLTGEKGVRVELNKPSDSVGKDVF
T3 sequence (Q96KS0 whole entry): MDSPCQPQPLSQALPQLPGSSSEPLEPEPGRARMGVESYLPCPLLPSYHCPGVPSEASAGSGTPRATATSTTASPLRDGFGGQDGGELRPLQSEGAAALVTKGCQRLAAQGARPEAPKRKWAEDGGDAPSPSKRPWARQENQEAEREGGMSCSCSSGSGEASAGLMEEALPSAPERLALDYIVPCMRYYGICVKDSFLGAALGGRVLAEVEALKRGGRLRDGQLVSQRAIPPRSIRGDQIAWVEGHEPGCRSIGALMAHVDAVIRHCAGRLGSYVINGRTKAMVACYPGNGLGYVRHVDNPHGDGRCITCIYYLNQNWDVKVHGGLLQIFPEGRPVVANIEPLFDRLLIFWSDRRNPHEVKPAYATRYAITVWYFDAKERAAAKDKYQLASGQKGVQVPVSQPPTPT

For `N#Cc1cc(F)c(-c2cnn(-c3ccc(C(=O)O)cn3)c2O)cc1F` [Compound 12, 6-(4-(4-Cyano-2,5-difluorophenyl)-5-hydroxy-1H-pyrazol-1-yl)nicotinic acid], the IC50 on full-length human PHD2 is less than 100 nM; at full-length human PHD3, 100 to 1000 nM; against full-length human PHD1 it was less than 100 nM.

Regarding `N#Cc1ccc(-c2cnn(-c3ccc(C(=O)O)cn3)c2O)cc1F` [Compound 13, 6-(4-(4-cyano-3-fluorophenyl)-5-hydroxy-1H-pyrazol-1-yl)nicotinic acid], the IC50 at full-length human PHD2, against full-length human PHD3 and on full-length human PHD1 was less than 100 nM in each case.

`Cc1cc(-c2cnn(-c3ccc(C(=O)O)cn3)c2O)ccc1O` [Compound 16, 6-(5-hydroxy-4-(4-hydroxy-3-methylphenyl)-1H-pyrazol-1-yl)nicotinic acid]: the results for the IC50 on full-length human PHD2, at full-length human PHD3 and at full-length human PHD1 were 100 to 1000 nM, 1000 to 10000 nM and 100 to 1000 nM, respectively.

For the compound `O=C(O)c1ccc(-n2ncc(-c3ccc(Cl)nc3)c2O)nc1` [Compound 17, 6-(4-(6-chloropyridin-3-yl)-5-hydroxy-1H-pyrazol-1-yl)nicotinic acid], the IC50 at full-length human PHD2, against full-length human PHD3 and on full-length human PHD1 was less than 100 nM in each case.

`Cc1cc(-n2nc(C)c(-c3ccc(C#N)cc3)c2O)ncc1C(=O)O` [Compound 18, 6-(4-(4-cyanophenyl)-5-hydroxy-3-methyl-1H-pyrazol-1-yl)-4-methylnicotinic acid]: the IC50 at full-length human PHD2, at full-length human PHD3 and against full-length human PHD1 was less than 100 nM each time.

Regarding `N#Cc1ccc(-c2cnn(-c3ccc(C(=O)O)cn3)c2O)c(O)c1` [Compound 21, 6-(4-(4-cyano-2-hydroxyphenyl)-5-hydroxy-1H-pyrazol-1-yl)nicotinic acid], the IC50 at full-length human PHD2 was less than 100 nM; at full-length human PHD3, 100 to 1000 nM; against full-length human PHD1, less than 100 nM.

`Cc1cc(C#N)ccc1-c1c(C)nn(-c2ccc(C(=O)O)cn2)c1O` [Compound 24, 6-(4-(4-cyano-2-methylphenyl)-5-hydroxy-3-methyl-1H-pyrazol-1-yl)nicotinic acid]: the IC50 on full-length human PHD2, against full-length human PHD3 and on full-length human PHD1 was less than 100 nM in each case.

For the compound `Cc1nn(-c2ccc(C(=O)O)cn2)c(O)c1-c1ccc(Cl)c(F)c1` [Compound 26, 6-(4-(4-chloro-3-fluorophenyl)-5-hydroxy-3-methyl-1H-pyrazol-1-yl)nicotinic acid], the IC50 on full-length human PHD2 is less than 100 nM; against full-length human PHD3 it was 100 to 1000 nM; at full-length human PHD1, less than 100 nM.

Take `Cc1nn(-c2ccc(C(=O)O)cn2)c(O)c1-c1ccc(Cl)cc1F` [Compound 28, 6-(4-(4-chloro-2-fluorophenyl)-5-hydroxy-3-methyl-1H-pyrazol-1-yl)nicotinic acid]: the figures for the IC50 at full-length human PHD2, against full-length human PHD3 and at full-length human PHD1 were 100 to 1000 nM, 100 to 1000 nM and less than 100 nM, respectively.

In the case of `COc1cc(-c2cnn(-c3ccc(C(=O)OC(C)(C)C)cn3)c2O)ccn1` [Compound 35, Tert-butyl 6-(5-hydroxy-4-(2-methoxypyridin-4-yl)-1H-pyrazol-1-yl)nicotinate], the IC50 on full-length human PHD2, at full-length human PHD3 and against full-length human PHD1 was less than 100 nM each time.

For the compound `CCOC(=O)c1ccc(-n2ncc(-c3ccc(C#N)cc3)c2O)nc1` [Compound 36, Ethyl 6-(4-(4-cyanophenyl)-5-hydroxy-1H-pyrazol-1-yl)nicotinate], the IC50 at full-length human PHD2, at full-length human PHD3 and against full-length human PHD1 was less than 100 nM throughout.

Take `CC(C)OC(=O)c1ccc(-n2ncc(-c3ccc(C#N)cc3)c2O)nc1` [Compound 37, Isopropyl 6-(4-(4-cyanophenyl)-5-hydroxy-1H-pyrazol-1-yl)nicotinate]: the IC50 on full-length human PHD2, against full-length human PHD3 and against full-length human PHD1 was less than 100 nM in each case.

Regarding `CC(C)(C)OC(=O)c1ccc(-n2ncc(-c3ccc(C#N)cc3)c2O)nc1` [Compound 38, Tert-butyl 6-(4-(4-cyanophenyl)-5-hydroxy-1H-pyrazol-1-yl)nicotinate], the IC50 at full-length human PHD2 was less than 100 nM; at full-length human PHD3, 1000 to 10000 nM; on full-length human PHD1, less than 100 nM.

Turning to `O=C(O)c1ccc(-n2ncc(-c3ccc(Cl)cc3O)c2O)nc1` [Compound 39, 6-(4-(4-chloro-2-hydroxyphenyl)-5-hydroxy-1H-pyrazol-1-yl)nicotinic acid], the IC50 was less than 100 nM on full-length human PHD2, 1000 to 10000 nM against full-length human PHD3 and 100 to 1000 nM on full-length human PHD1.

The values above are taken from patent US20230227426A1 (Akebia Therapeutics, Inc., priority 2020, published 2023).
